From ChEMBL document CHEMBL1681659, “Discovery of novel positive allosteric modulators of the metabotropic glutamate receptor 5 (mGlu5)” (Bioorg Med Chem Lett, 2011)

How the values were obtained:
[1] = Chemical stability of the compound assessed as half life at pH 10; type: physicochemical; conditions: buffer
[2] = Intrinsic clearance in human liver microsome; type: ADME; conditions: liver microsomes
[3] = Chemical stability assessed as compound remaining after 1 hr by photolysis assay; type: physicochemical; conditions: read-out: Stability
[4] = Chemical stability of the compound assessed as half life at pH 1; type: physicochemical; conditions: buffer
[5] = Intrinsic clearance in rat liver microsome; type: ADME; conditions: liver microsomes

- half-life [1]: 24 h
- microsomal CLint [2]: 120 µL/min/mg
- remaining at 1 h [3]: 0%
- half-life [4]: 278 h
- microsomal CLint [5]: 95 µL/min/mg
Structure (SMILES): O=C1CCOc2nc(C#Cc3ccccc3)ccc21
